Assays:
Experiment in all cases: relative viability (nuclei count vs DMSO), 5 days (fraction); higher = more cells survive
[1] = compound: C1CC1C(=O)NC2=NNC3=C2C=CC(=C3)C4=CC(=CC=C4)C(=O)NC5CC5 [XMD13-2] + O=C(c1cc(Cc2n[nH]c(=O)c3ccccc23)ccc1F)N1CCN(C(=O)C2CC2)CC1 [Olaparib] (partner 8 µM)
Outline: (§1)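 After 5 days of treatment, lung cancer cells in 1536-well plates were fixed and stained in a single step (final 0.05% Triton X-100, 1% formaldehyde, 1 ug/ml Hoechst) and their nuclei counted on 4× images. Treatment had been applied by pin tool the day after seeding as one drug alone or as a fixed anchor-drug dose with five library-drug doses (not always all listed) in √10 steps. Relative viability is the nuclei count of treated wells divided by that of vehicle wells, and values are medians of duplicate plates.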

[2] = compound: Cc1ccc(C(=O)Nc2cccc(C(F)(F)F)c2)cc1Nc1cncc(C(N)=O)c1 [ALW-II-49-7] + O=C(c1cc(Cc2n[nH]c(=O)c3ccccc23)ccc1F)N1CCN(C(=O)C2CC2)CC1 [Olaparib] (partner 8 µM)
Outline: as §1

[3] = compound: C1CC1C(=O)NC2=NNC3=C2C=CC(=C3)C4=CC(=CC=C4)C(=O)NC5CC5 [XMD13-2] + CCNC(=O)c1noc(-c2cc(C(C)C)c(O)cc2O)c1-c1ccc(CN2CCOCC2)cc1 [Luminespib] (partner 0.01 µM)
Outline: as §1

Cell Line | relative viability ([1]; first compound 0.05 µM) | relative viability ([1]; first compound 0.1581 µM) | relative viability ([1]; first compound 1.581 µM) | relative viability ([1]; first compound 5 µM) | relative viability ([2]; first compound 0.08 µM) | relative viability ([2]; first compound 0.253 µM) | relative viability ([2]; first compound 0.8 µM) | relative viability ([2]; first compound 2.53 µM) | relative viability ([2]; first compound 8 µM) | relative viability ([3]; first compound 0.05 µM) | relative viability ([3]; first compound 0.1581 µM) | relative viability ([3]; first compound 0.5 µM) | relative viability ([3]; first compound 1.581 µM) | relative viability ([3]; first compound 5 µM) | relative viability ([1]; first compound 0.5 µM)
Calu-6 | 0.615 | 0.586 | 0.605 | 0.512 | 0.588 | 0.521 | 0.576 | 0.45 | 0.417 |  |  |  |  |  | 
NCI-H2009 | 0.663 | 0.685 | 0.673 | 0.745 | 0.601 | 0.654 | 0.665 | 0.422 | 0.428 | 1.01 | 1.01 | 1.01 | 1.02 | 1.19 | 0.727
NCI-H1651 | 0.174 | 0.206 | 0.184 | 0.188 | 0.15 | 0.176 | 0.176 | 0.169 | 0.171 | 0.969 | 0.916 | 0.714 | 0.773 | 0.886 | 0.19
HOP-62 | 0.307 | 0.697 |  | 0.489 | 0.162 | 0.378 | 0.595 |  | 0.172 | 1 | 0.878 | 0.925 | 0.881 | 0.938 | 0.391
CAL-12T | 0.694 | 0.799 | 0.695 | 0.697 | 0.797 | 0.644 | 0.773 | 0.753 | 0.719 | 0.373 | 0.832 | 0.933 | 0.286 | 0.75 | 0.708
LCLC-103H | 0.764 | 0.797 | 0.846 | 0.805 | 0.724 | 0.79 | 0.771 | 0.714 | 0.762 | 0.958 | 0.943 | 0.998 | 1.07 | 0.739 | 0.776
NCI-H3122 | 0.726 | 0.649 | 0.702 | 0.629 | 0.636 | 0.657 | 0.642 | 0.705 | 0.537 | 0.102 | 0.0949 | 0.106 | 0.105 | 0.0867 | 0.697
NCI-H1623 |  |  |  |  |  |  |  |  |  | 0.594 | 0.514 | 0.517 | 0.456 | 0.502 | 
NCI-H1299 | 0.953 | 0.991 | 0.972 | 1 | 0.94 | 0.972 | 0.988 | 0.73 | 0.761 |  |  |  |  |  | 0.959
NCI-H1703 | 0.503 | 0.417 |  | 0.372 | 0.492 | 0.398 | 0.358 | 0.245 | 0.245 |  |  |  |  |  | 0.38
IA-LM | 0.832 | 0.903 | 0.707 | 0.635 | 0.823 | 0.718 | 0.726 | 0.628 | 0.355 |  |  |  |  |  | 0.787
HCC-366 | 0.448 | 0.328 | 0.355 | 0.358 | 0.423 | 0.333 | 0.377 | 0.337 | 0.301 |  |  |  |  |  | 0.444
HCC-78 | 0.895 | 0.781 | 0.667 | 0.733 | 1.02 | 0.77 | 0.767 | 0.625 | 0.738 |  |  |  |  |  | 0.812
NCI-H1563 |  |  |  |  |  |  |  |  |  | 0.521 | 0.526 | 0.527 | 0.536 | 0.506 | 
